Entries after “also recorded” stand apart in the source; their conditions may differ.
Columns and labels:
[1] = test system: red blood cells; assay: Red blood cell hitchhiking of nanoparticles coated with the ionic liquid; assay type: cell-based; conditions: nanoparticles coated with this ionic liquid
[2] = test system: microglia, astrocytes, endothelial cells in brain; assay: Confocal/widefield immunofluorescence of brain sections (cellular localization); assay type: in vivo, Sprague-Dawley rat; conditions: Iba-1, GFAP, von Willebrand factor
Method: Confocal Fluorescence: Perfused and cryopreserved rat brains were sectioned using a microtome (Leica Biosystems, #CM3050S) at 20-micron thickness. The slides were washed twice with 1×PBS and permeabilized (with 0.1% Triton-X, 0.1% BSA in PBS) for 30 min at 25° C. The permeabilized slides were blocked (1% BSA, 1% normal goat serum in PBS) for an additional 30 min at 25° C. and followed by probing with primary rabbit-anti-IBal (1:200 dilution) or […] (1:250 dilution) for 90 min at 25° C. At the end of the incubation, the slides were washed 3x with PBS and followed by incubation with secondary antibodies (Texas Red Goat-anti Rabbit, 1:500 for IBa1 and Alexa 488 goat anti-mouse, 1:500 for GFP), 1 hr at 25° C. To stain cellular nuclei, Hoechst stain was used at 1:10000 dilution. All dilutions represented as (vol/vol). The slides were washed 3× with 1×PBS and mounted with antifade media and kept at 4° C. for further analysis with confocal microscopy. […]
To both qualitatively and quantitatively confirm IL-PLGA NP selectivity for cells comprising the HIV reservoir, brain sections (40 μm) collected from rats used above were co-labeled for protein markers of astrocytes (GFAP; FIG. 3B) and microglia (Iba-1; FIG. 3C) with a Hoechst nuclear counterstain (FIG. 3A). […]

[3] = Abacavir detection in brain regions (1H-NMR); assay type: in vivo, Sprague-Dawley rat; conditions: 6 h; IL-PLGA NPs with 60 μg/mL ABC, intra-carotid; n=3/group
Method: Abacavir Detection in the Brain: In parallel with DiD-NP injections, Sprague-Dawley rats injected with IL-PLGA NPs (either without cargo or with 60 μg/mL ABC, n=3) were sacrificed at 6 hours post-injection, and whole organs were processed, and frozen post-mortem as described above in Biodistribution. In order to assess to areas of biodistribution of abacavir within the brain, the following regions were sliced and homogenized in a 1:1 mixture of 1×PBS (pH 7.4) and Acetonitrile constituting a total homogenate volume of 500 μL per sample: striatum, midbrain, interbrain, cerebellum, hypothalamus, cerebral cortex, & hippocampus. […] A range of 500-600 μL of liquid filtrate was recovered across all samples, which were all delivered into clean NMR tubes and topped 10% (v/v) with D2O to be evaluated for presence of drug by ^1H NMR at 400 MHz with 90% H2O/10% D2O water suppression.
Once biodistribution was determined with DiD, a new set of healthy, 8-week-old, female, Sprague Dawley rats with in-dwelling carotid catheters received IV infusions (under the same conditions) with either empty, or ABC-encapsulated, IL-coated PLGA NPs (n=3/group). Sites of regional distribution of abacavir cargo were evaluated within the brain (at the same 6-hour endpoint). […]

[4] = test system: HIV-1BaL; assay: HIV-1 replication in human PBMCs (p24 antigen ELISA); assay type: cell-based, HIV-1 (in human PBMCs); conditions: days 3, 7, 10 post-infection; ABC alone or in NPs p<0.0001; empty IL-coated NPs p=0.04
Method: HIV Expression and Cytotoxicity: 3 independent batches of bare and CA2HA 1:2-coated PLGA NPs were prepared with abacavir (ABC) as above but in sterile Milli-Q water and re-suspended to 1 mg/ml with sterile 1×PBS pH 7.4. As ~60 μg/mL of drug was estimated by quantitative NMR, PBMC cells were stimulated with 10 μg/ml of PHA for 4 days. Stimulated PBMC cells were harvested at 400×g, RT for 10 min. The cells at 2×10^6 cells/mL were used for each experimental condition and infected with 1 ng/ml of HIV-1 Bal+ in presence of 3 ng/ml of IL-2 and 2 μg/ml of polybrene. PBMC cells were treated in the absence or presence of nanoparticles at 10 µM final concentration. […] The cell viability was determined by trypan blue at each harvesting day and an aliquot of condition media was saved for further analysis on p24 antigen assay. […] The p24 antigen assay was performed according to manufacture protocol on experimental condition media collected on 3, 7, 10 days post HIV-1 infection for quantification of HIV-1.
To assess the bioactivity of ART when encapsulated inside PLGA & IL-PLGA NPs, HIV-1 replication was assessed in human peripheral blood mononuclear cells (PBMCs) that were mock-infected or were infected with HIV-1BaL (1 ng/ml) for 10 days. […] Concentration of the HIV-1 capsid protein (p24, ng/ml) was assessed on days 3-, 7-, and 10 post-infection by enzyme-linked immunosorbent assay (ELISA) (FIG. 7).

[5] = Quantitative encapsulation of ABC (1H NMR); assay type: physicochemical; conditions: for ABC encapsulated: ~1 mg/mL NPs, from an added 74.1 μg/mL, quantitative 1H NMR
Method: Quantitative encapsulation of ABC (^1H NMR): PLGA and CA2HA 1:2 PLGA NPs were synthesized in deuterium oxide as described previously, and then resuspended to 500 μL (2 mg/mL) to quantitatively measure composition of the IL coating on the surface of the PLGA NPs with 20 μL Tetramethylsilane (TMS) internal quantification standard: ^1H NMR (400 MHz, D2O) δ 6.85 (dt, J=15.8, 7.0 Hz, 27H), 5.85 (dt, J=15.7, 1.5 Hz, 28H), 4.78 (d, J=1.3 Hz, 7140H), 4.09-4.02 (m, 27H), 3.81-3.71 (m, 21H), 3.64 (dd, J=11.8, 4.5 Hz, 45H), 3.60-3.47 (m, 73H), 3.25 (s, 136H), 2.72 (d, J=1.3 Hz, 14964H), 2.19 (qd, J=7.2, 1.6 Hz, 69H), 1.56-1.46 (m, 47H), 0.91 (t, J=7.4 Hz, 96H), 0.00 (s, 12H).
To break open the NPs, bare PLGA NPs and IL-PLGA NPs were first sonicated at 60° C. for 30 minutes to destroy the outer IL coating integrity, evidenced by a phase separation of cloudiness in the IL-PLGA NPs. To next dissociate the IL coating from the polymer core, all particles were vortexed at 25° C. on the highest setting for 10 minutes (in 2-minute intervals). The particles were then stored at −80° C. for 2 minutes to protect the ABC drug while inducing a bulk phase separation, and then vortexed at the highest setting for 2 min at 25° C. Lastly, to extrude the abacavir from the polymer core, all NPs were 30 kDa MWCO centrifuge-filtered for 1 hour at 4500 RPM at 40° C. Filtrate smaller than 30 kDa was collected at the bottom of the tube and stored at −20° C., concentrated (2×) with D2O and evaluated for presence of drug by ^1H NMR at 400 MHz at the highest scan rate (proton64).
As the appearance of drug peaks were very small compared to the IL, 2 μL of TMS was then used in particular to obtain a relative understanding of the size of the small emerging peaks. […] Representation of encapsulated ABC dose was then calculated: • 0.002 mL TMS (0.648 g/mL)=0.0013 g TMS • 0.0013 g TMS/88.22 g/mol TMS=0.0000146 mol TMS • 0.0000146 mol TMS (~0.03 integral ratio, 8.5 ppm & 0 ppm peak) ~4.38×10^−7 mol ABC • 4.38× 10-7 mol ABC (286.3 g/mol ABC) ~ (0.000125 g ABC/2) (ug total ~1 mg/mL) ~62.7 μg/mL ABC encapsulated

## CCC/C=C/C(=O)O [CA2HA 1:1, Choline 2-Hexenoate 1:1]
[1]
  Red blood cell hitchhiking: successfully hitchhike red blood cells

## CC/C=C/CC(=O)O [CA3HA 1:1, Choline 3-Hexenoate 1:1]
[1]
  Red blood cell hitchhiking: successfully hitchhike red blood cells

## CCCCCCC(=O)O [CAHPA 1:1, Choline Heptanoate 1:1]
[1]
  Red blood cell hitchhiking: successfully hitchhike red blood cells

## CC/C(C)=C/C(=O)O [CA3ME2PE 1:1, Choline Trans-3-Methyl-Trans-2-Pentenoate 1:1]
[1]
  Red blood cell hitchhiking: successfully hitchhike red blood cells

## CCC/C=C/C(=O)O [CA2HA 1:2, Choline 2-Hexenoate 1:2]
[2]
  Cellular localization in brain: colocalizes with HIV reservoir cells

## CC/C=C(\C)C(=O)O [CAGAS 1:2, Choline trans-2-Methyl-2-Pentenoate 1:2]
[1]
  Red blood cell hitchhiking: successfully hitchhike red blood cells

## CCC/C(C)=C/C(=O)O [CA3ME2HA 1:1, Choline Trans-3-Methyl-Trans-2-Hexenoate 1:1]
[1]
  Red blood cell hitchhiking: successfully hitchhike red blood cells

## Nc1nc(NC2CC2)c2ncn([C@H]3C=C[C@@H](CO)C3)c2n1 [ABC, abacavir]
[3]
  Abacavir regional brain accumulation: accumulate most greatly in the cerebellum, interbrain, striatum, and midbrain regions; also recorded: lesser (but considerable) delivery to the hippocampus, cerebral cortex, and hypothalamus regions
[4]
  HIV-1 viral replication (p24) vs HIV-infected cells: significantly attenuated viral replication
[5]; ABC 2%, estimated by quantitative 1H NMR
  Encapsulation efficiency (EE) of ABC: ~ 84.6%
[5]
  ABC encapsulated: ~ 62.7 μg/mL
[5]; listed as abacavir (ABC)
  ABC encapsulated: ~ 60 μg/mL

From patent US20260335251A1, “RED BLOOD CELL-HITCHHIKING IONIC LIQUID COATED NANOPARTICLES FOR CROSSING THE BLOOD BRAIN BARRIER” (University of Mississippi, priority 2022, published 2026)
